# ChEMBL document CHEMBL4229359, “Simple 2(5H)-furanone derivatives with selective cytotoxicity towards non-small cell lung cancer cell line A549 - Synthesis, structure-activity relationship and biological evaluation” (Eur J Med Chem, 2018)
# Calls of active or inactive are those of the source. The calls are words filed in the database; no cut-off is given here.
# Key:
# BEAS-2B = assay: Cytotoxicity against human BEAS2B cells assessed as reduction in cell viability after 72 hrs by MTT assay; format: cell-based
# A549 [1] = assay: Cytotoxicity against human A549 cells assessed as reduction in cell viability after 72 hrs by MTT assay; format: functional, cell-based; settings: A549, 72 h
# [2] = Selectivity index, ratio of IC50 for human BEAS2B cells to IC50 for human A549 cells; format: toxicity
# A549 [3] = assay: Cell cycle arrest in human A549 cells assessed as accumulation at S-phase at 10 uM after 72 hrs by propidium iodide staining based flow cytometry (reference value: 16.8 to 18.5%); format: functional
# A549 [4] = assay: Cell cycle arrest in human A549 cells assessed as accumulation at G2/M-phase at 10 uM after 72 hrs by propidium iodide staining based flow cytometry (reference value: 6.3 to 7.2%); format: functional
# A549 [5] = assay: Anticlonogenic activity against human A549 cells at 10 uM after 72 hrs by crystal violet staining based microscopic method relative to control; format: functional
# A549 [6] = assay: Cell cycle arrest in human A549 cells assessed as accumulation at G1-phase at 10 uM after 72 hrs by propidium iodide staining based flow cytometry (reference value: 75.2 to 76%); format: functional
# A549 [7] = assay: Induction of apoptosis in human A549 cells assessed as live cells at 20 uM after 72 hrs by Annexin V-FITC/propidium iodide staining based flow cytometry (reference value: 98.5%); format: functional
# DU-145 = assay: Cytotoxicity against human DU145 cells assessed as reduction in cell viability after 72 hrs by MTT assay; format: functional, cell-based; settings: DU-145, 72 h
# A549 [8] = assay: Cell cycle arrest in human A549 cells assessed as accumulation at S-phase at 20 uM after 72 hrs by propidium iodide staining based flow cytometry (reference value: 31.9%); format: functional
# A549 [9] = assay: Effect on Bcl-x protein expression in human A549 cells at 20 uM after 72 hrs by densitometric analysis; format: functional, cell-based
# HCT-116 [10] = assay: Cytotoxicity against human HCT116 cells assessed as reduction in cell viability after 72 hrs by MTT assay; format: functional, cell-based; settings: HCT-116, 72 h
# A549 [11] = assay: Induction of apoptosis in human A549 cells assessed as late apoptotic cells at 20 uM after 72 hrs by Annexin V-FITC/propidium iodide staining based flow cytometry (reference value: 0.5%); format: functional
# A549 [12] = assay: Anticlonogenic activity against human A549 cells at 10 uM after 24 to 72 hrs by crystal violet staining based microscopic method; format: functional, cell-based
# A549 [13] = assay: Effect on Bad protein expression in human A549 cells at 20 uM after 72 hrs by densitometric analysis; format: functional, cell-based
# A549 [14] = assay: Effect on Bcl2 protein expression in human A549 cells at 20 uM after 72 hrs by densitometric analysis; format: functional, cell-based
# A549 [15] = assay: Cell cycle arrest in human A549 cells assessed as accumulation at G1-phase at 10 uM after 24 hrs by propidium iodide staining based flow cytometry (reference value: 59.4%); format: functional
# U2OS = assay: Cytotoxicity against human U2OS cells assessed as reduction in cell viability after 72 hrs by MTT assay; format: functional, cell-based
# HT-29 = assay: Cytotoxicity against human HT-29 cells assessed as reduction in cell viability after 72 hrs by MTT assay; format: functional, cell-based; settings: HT-29, 72 h
# A549 [16] = assay: Effect on cleaved caspase-3 protein expression in human A549 cells at 20 uM after 72 hrs by densitometric analysis; format: functional, cell-based
# A549 [17] = assay: Cell cycle arrest in human A549 cells assessed as accumulation at G2/M-phase at 20 uM after 72 hrs by propidium iodide staining based flow cytometry (reference value: 6.7%); format: functional
# A549 [18] = assay: Effect on Pro-caspase-3 protein expression in human A549 cells at 20 uM after 72 hrs by densitometric analysis; format: functional, cell-based
# SJSA-1 = assay: Cytotoxicity against human SJSA1 cells assessed as reduction in cell viability after 72 hrs by MTT assay; format: functional, cell-based; settings: SJSA-1, 72 h
# A549 [19] = assay: Induction of apoptosis in human A549 cells assessed as early apoptotic cells at 20 uM after 72 hrs by Annexin V-FITC/propidium iodide staining based flow cytometry (reference value: 0.4%); format: functional
# A549 [20] = assay: Cell cycle arrest in human A549 cells assessed as accumulation at S-phase at 10 uM after 24 hrs by propidium iodide staining based flow cytometry (reference value: 34.1%); format: functional
# A549 [21] = assay: Induction of apoptosis in human A549 cells assessed as necrotic cells at 20 uM after 72 hrs by Annexin V-FITC/propidium iodide staining based flow cytometry (reference value: 0.6%); format: functional
# A549 [22] = assay: Upregulation of Cyclin-B1 protein expression in human A549 cells at 10 uM after 72 hrs by Western blot analysis; format: functional, cell-based
# A549 [23] = assay: Induction of apoptosis in human A549 cells assessed as caspase-3 cleavage at 20 uM after 72 hrs by Western blot analysis; format: functional, cell-based
# MCF7 = assay: Cytotoxicity against human MCF7 cells assessed as reduction in cell viability after 72 hrs by MTT assay; format: functional, cell-based; settings: MCF7, 72 h
# A549 [24] = assay: Cell cycle arrest in human A549 cells assessed as accumulation at G1-phase at 20 uM after 72 hrs by propidium iodide staining based flow cytometry (reference value: 61.5%); format: functional
# LoVo = assay: Cytotoxicity against human LoVo cells assessed as reduction in cell viability after 72 hrs by MTT assay; format: functional, cell-based
# HepG2 = assay: Cytotoxicity against human HepG2 cells assessed as reduction in cell viability after 72 hrs by MTT assay; format: functional, cell-based; settings: HepG2, 72 h
# A549 [25] = assay: Cell cycle arrest in human A549 cells assessed as accumulation at G2/M-phase at 10 uM after 24 hrs by propidium iodide staining based flow cytometry (reference value: 6.5%); format: functional
# A549 [26] = assay: Effect on Bax protein expression in human A549 cells at 20 uM after 72 hrs by densitometric analysis; format: functional, cell-based
# PC-3 = assay: Cytotoxicity against human PC3 cells assessed as reduction in cell viability after 72 hrs by MTT assay; format: functional, cell-based; settings: PC-3, 72 h
# HCT-116 [27] = assay: Cytotoxicity against p53-/- human HCT116 cells assessed as reduction in cell viability after 72 hrs by MTT assay; format: functional, cell-based; settings: HCT-116, 72 h
# Hep 3B2 = assay: Cytotoxicity against human Hep3B cells assessed as reduction in cell viability after 72 hrs by MTT assay; format: functional, cell-based
compound,measurement,setting,value
CCCCOC1OC(=O)C(Cl)=C1Nc1ccc(Cl)cc1 (configuration not stated),IC50,BEAS-2B,60.8 µM
same,IC50,A549 [1],58.1 µM
same,log(RatioIC50),[2],0.02
C#Cc1cccc(Nc2ncnc3cc(OCCOC)c(OCCOC)cc23)c1 [ERLOTINIB],Activity,A549 [3],18.5%
same,Activity,A549 [4],6%
same,Activity,A549 [5],75%
same,Activity,A549 [6],74.5%
O=C1OC(O)C(Cl)=C1Cl (configuration not stated) [MUCOCHLORIC ACID],Activity,A549 [7],98.6%
same,Activity,A549 [3],18.8%
same,IC50,DU-145,130 µM
same,IC50,BEAS-2B,45 µM
same,Activity,A549 [8],29%
same,Activity,A549 [9],inactive
same,IC50,HCT-116 [10],8.3 µM
same,IC50,A549 [1],123 µM
same,Activity,A549 [11],0.3%
same,Activity,A549 [12],inactive
same,Activity,A549 [13],inactive
same,Activity,A549 [14],inactive
same,Activity,A549 [15],58.7%
same,IC50,U2OS,58.5 µM
same,Activity,A549 [4],7.2%
same,IC50,HT-29,21.8 µM
same,Activity,A549 [16],inactive
same,Activity,A549 [17],6.9%
same,Activity,A549 [18],inactive
same,IC50,SJSA-1,39.4 µM
same,Activity,A549 [19],0.3%
same,Activity,A549 [20],33.3%
same,Activity,A549 [21],0.8%
same,Activity,A549 [22],inactive
same,Activity,A549 [23],inactive
same,IC50,MCF7,32.3 µM
same,Activity,A549 [24],64.2%
same,IC50,LoVo,17.2 µM
same,Activity,A549 [6],74%
same,log(RatioIC50),[2],-0.44
same,IC50,HepG2,111 µM
same,Activity,A549 [25],8%
same,Activity,A549 [26],inactive
same,IC50,PC-3,24.7 µM
same,IC50,HCT-116 [27],10.8 µM
same,IC50,Hep 3B2,85.1 µM
CCCCOC1OC(=O)C(Cl)=C1Nc1ccc(Br)cc1 (configuration not stated),IC50,BEAS-2B,42.7 µM
same,IC50,A549 [1],46.5 µM
same,log(RatioIC50),[2],-0.04
CCCCOC1OC(=O)C(Cl)=C1N1CCCCC1 (configuration not stated),IC50,BEAS-2B,172 µM
same,IC50,A549 [1],93.3 µM
same,log(RatioIC50),[2],0.27
CC(C)(C)COC1OC(=O)C(Cl)=C1Nc1ccccc1 (configuration not stated),IC50,BEAS-2B,76.2 µM
same,IC50,A549 [1],76.2 µM
same,log(RatioIC50),[2],0
CC(C)(C)COC1OC(=O)C(Cl)=C1N1CCCCC1 (configuration not stated),IC50,BEAS-2B,> 400 µM
same,IC50,A549 [1],> 400 µM
CC(C)OC1OC(=O)C(Cl)=C1Nc1ccc(Br)cc1 (configuration not stated),IC50,BEAS-2B,202 µM
same,IC50,A549 [1],95.9 µM
same,log(RatioIC50),[2],0.32
COC1OC(=O)C(Cl)=C1Cl (configuration not stated),IC50,BEAS-2B,4.6 µM
same,IC50,A549 [1],5.1 µM
same,log(RatioIC50),[2],0.05
CCCCOC1OC(=O)C(Cl)=C1Cl (configuration not stated),IC50,BEAS-2B,22.3 µM
same,IC50,A549 [1],22.5 µM
same,log(RatioIC50),[2],0
CCCOC1OC(=O)C(Cl)=C1Cl (configuration not stated),IC50,BEAS-2B,3.5 µM
same,IC50,A549 [1],3.6 µM
same,log(RatioIC50),[2],-0.02
CC(C)(C)COC1OC(=O)C(Cl)=C1Nc1ccc(F)cc1 (configuration not stated),IC50,BEAS-2B,47.6 µM
same,IC50,A549 [1],26.7 µM
same,log(RatioIC50),[2],0.25
CC(C)(C)COC1OC(=O)C(Cl)=C1Nc1ccc(Cl)cc1 (configuration not stated),IC50,BEAS-2B,30.3 µM
same,IC50,A549 [1],13.3 µM
same,log(RatioIC50),[2],0.36
CC(C)OC1OC(=O)C(Cl)=C1Nc1ccc(Cl)cc1 (configuration not stated),IC50,BEAS-2B,77 µM
same,IC50,A549 [1],39.6 µM
same,log(RatioIC50),[2],0.29
CCCCOC1OC(=O)C(Cl)=C1Nc1ccc(F)cc1 (configuration not stated),IC50,BEAS-2B,122 µM
same,IC50,A549 [1],78.5 µM
same,log(RatioIC50),[2],0.19
CC(C)(C)COC1OC(=O)C(Cl)=C1Nc1ccc(Br)cc1 (configuration not stated),IC50,BEAS-2B,30.9 µM
same,IC50,A549 [1],28 µM
same,log(RatioIC50),[2],0.23
CC(C)(C)OC1OC(=O)C(Cl)=C1Cl (configuration not stated),IC50,BEAS-2B,23.1 µM
same,IC50,A549 [1],14 µM
same,log(RatioIC50),[2],0.22
CC(C)OC1OC(=O)C(Cl)=C1Nc1ccc(F)cc1 (configuration not stated),IC50,BEAS-2B,> 400 µM
same,IC50,A549 [1],186 µM
CC(C)OC1OC(=O)C(Cl)=C1N1CCCCC1 (configuration not stated),IC50,BEAS-2B,> 400 µM
same,IC50,A549 [1],> 400 µM
CCOC1OC(=O)C(Cl)=C1Cl (configuration not stated),IC50,BEAS-2B,3.8 µM
same,IC50,A549 [1],6.3 µM
same,log(RatioIC50),[2],0.22
CCCCOC1OC(=O)C(Cl)=C1Nc1ccccc1 (configuration not stated),IC50,BEAS-2B,206 µM
same,IC50,A549 [1],175 µM
same,log(RatioIC50),[2],0.07
CC(C)(C)COC1OC(=O)C(Cl)=C1Cl (configuration not stated),Activity,A549 [7],77.7%
same,Activity,A549 [3],17.6%
same,IC50,DU-145,26.8 µM
same,IC50,BEAS-2B,59 µM
same,Activity,A549 [8],40.8%
same,Activity,A549 [9],inactive
same,IC50,HCT-116 [10],7.2 µM
same,IC50,A549 [1],7.7 µM
same,Activity,A549 [11],16.1%
same,Activity,A549 [12],Active
same,Activity,A549 [13],inactive
same,Activity,A549 [14],inactive
same,Activity,A549 [15],62.1%
same,IC50,U2OS,38.1 µM
same,Activity,A549 [4],8.4%
same,IC50,HT-29,7.2 µM
same,Activity,A549 [16],inactive
same,Activity,A549 [17],8%
same,Activity,A549 [18],inactive
same,IC50,SJSA-1,11.1 µM
same,Activity,A549 [19],4.2%
same,Activity,A549 [20],32.6%
same,Activity,A549 [21],2.3%
same,Activity,A549 [22],inactive
same,Activity,A549 [23],inactive
same,IC50,MCF7,11.2 µM
same,Activity,A549 [24],51.2%
same,IC50,LoVo,7.3 µM
same,Activity,A549 [6],74%
same,log(RatioIC50),[2],0.88
same,IC50,HepG2,17.6 µM
same,Activity,A549 [25],5.3%
same,Activity,A549 [26],inactive
same,IC50,PC-3,6 µM
same,IC50,HCT-116 [27],6.2 µM
same,IC50,Hep 3B2,27.8 µM
CC(C)OC1OC(=O)C(Cl)=C1Nc1ccccc1 (configuration not stated),IC50,BEAS-2B,> 400 µM
same,IC50,A549 [1],> 400 µM
